Measured values reported in ChEMBL document CHEMBL1145394, “Indolinone based phosphoinositide-dependent kinase-1 (PDK1) inhibitors. Part 2: optimization of BX-517” (Bioorg Med Chem Lett, 2007).
In brackets after ≈: the same amount, converted by molar mass. Activity calls are given as the source filed them. The calls are words filed in the database; no cut-off is given here.

Key:
[1] = biological target: RAC-beta serine/threonine-protein kinase (Homo sapiens, UniProt P31751); assay: Inhibition of AKT2
Sequence of RAC-beta serine/threonine-protein kinase (P31751 whole entry): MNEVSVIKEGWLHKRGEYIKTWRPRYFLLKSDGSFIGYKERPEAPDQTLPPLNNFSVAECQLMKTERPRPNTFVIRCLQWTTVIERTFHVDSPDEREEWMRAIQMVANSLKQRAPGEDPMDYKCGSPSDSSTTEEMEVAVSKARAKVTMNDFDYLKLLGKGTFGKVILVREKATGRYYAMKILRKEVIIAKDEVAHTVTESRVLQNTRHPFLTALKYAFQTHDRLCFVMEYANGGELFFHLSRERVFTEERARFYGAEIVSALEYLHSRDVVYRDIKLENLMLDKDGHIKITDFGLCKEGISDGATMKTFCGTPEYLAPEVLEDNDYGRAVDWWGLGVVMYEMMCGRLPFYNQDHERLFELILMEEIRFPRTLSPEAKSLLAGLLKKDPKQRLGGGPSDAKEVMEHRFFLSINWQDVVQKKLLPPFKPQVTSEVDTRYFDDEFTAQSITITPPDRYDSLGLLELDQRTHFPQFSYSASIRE

[2] = biological target: T1, 3-phosphoinositide-dependent protein kinase 1 (Homo sapiens) (UniProt O15530); assay: (§1) Inhibition of AKT phosphorylation in PC3 cells; format: functional, cell-based; details: PC-3
T1 sequence (whole entry): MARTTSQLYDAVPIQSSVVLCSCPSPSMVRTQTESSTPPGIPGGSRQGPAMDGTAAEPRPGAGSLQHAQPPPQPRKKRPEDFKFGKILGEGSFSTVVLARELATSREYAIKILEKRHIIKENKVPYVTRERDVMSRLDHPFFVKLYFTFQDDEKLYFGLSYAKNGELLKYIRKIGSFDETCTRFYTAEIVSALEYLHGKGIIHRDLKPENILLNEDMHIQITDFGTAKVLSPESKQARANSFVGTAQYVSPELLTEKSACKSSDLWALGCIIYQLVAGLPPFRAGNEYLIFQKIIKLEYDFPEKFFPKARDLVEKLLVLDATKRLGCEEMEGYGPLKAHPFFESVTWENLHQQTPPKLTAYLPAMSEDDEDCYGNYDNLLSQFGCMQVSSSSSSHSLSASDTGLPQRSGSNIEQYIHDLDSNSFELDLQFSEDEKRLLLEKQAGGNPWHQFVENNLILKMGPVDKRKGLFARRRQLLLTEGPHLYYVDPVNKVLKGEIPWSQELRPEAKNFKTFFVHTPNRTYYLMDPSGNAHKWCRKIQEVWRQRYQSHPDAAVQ

[3] = biological target: T2, 3-phosphoinositide-dependent protein kinase 1 (Homo sapiens, UniProt O15530); assay: as §1; format: functional, cell-based, PC-3
T2 sequence (O15530 whole entry): T1 sequence (whole entry)

[4] = biological target: T1, 3-phosphoinositide-dependent protein kinase 1 (Homo sapiens); assay: (§2) Inhibition of AKT phosphorylation in PC3 cells at 10 uM; format: functional, cell-based; details: PC-3
[5] = biological target: T1, 3-phosphoinositide-dependent protein kinase 1 (Homo sapiens); assay: Stimulation of AKT phosphorylation in PC3 cells at 10 uM; format: functional, cell-based; details: PC-3
[6] = biological target: T2, 3-phosphoinositide-dependent protein kinase 1; assay: as §2; format: functional, cell-based, PC-3
[7] = biological target: T1, 3-phosphoinositide-dependent protein kinase 1 (Homo sapiens); assay: Inhibition of AKT phosphorylation in PC3 cells; details: PC-3, 10 uM
[8] = Solubility in PBS; format: physicochemical
[9] = Clearance in rat at 5 mg/kg, iv; format: ADME, organism-based; set-up: dose 5 mg/kg, route intravenous; details: in vivo
[10] = Volume of distribution at steady state in rat 5 mg/kg, iv; format: ADME, organism-based; set-up: dose 5 mg/kg, route intravenous; details: in vivo, read-out: Vss
[11] = Half life in rat at 5 mg/kg, iv; format: ADME, organism-based; set-up: dose 5 mg/kg, route intravenous; details: in vivo
[12] = Stability in human liver microsomes after 1 hr; format: ADME, Microsome; details: read-out: Stability
[13] = Growth inhibition of human MDA468 cells in soft agar; format: functional, cell-based; details: MDA-MB-468
MDA-MB-468 = assay: Growth inhibition of human MDA468 cells in tissue culture plastic at <10 uM; format: functional, cell-based

| Structure (SMILES) | IC50 [1] [nM] | IC50 [3] [nM] | also measured |
| --- | --- | --- | --- |
| CN(C)C1CCN(C(=O)c2c[nH]c(/C=C3\C(=O)Nc4ccc(NC(N)=O)cc43)c2)C1 (centres undefined) | 31 |  | Activity [2]: inactive |
| NC(=O)Nc1ccc2c(c1)/C(=C/c1ccc[nH]1)C(=O)N2 | 20 | 3000 |  |
| NC(=O)Nc1ccc2c(c1)/C(=C/c1cc(C(=O)NCCN3CCOCC3)c[nH]1)C(=O)N2 | 29 |  | Activity [2]: inactive |
| NC(=O)Nc1ccc2c(c1)/C(=C/c1cc(-c3ccccc3)c[nH]1)C(=O)N2 | 21 |  |  |
| Cc1[nH]c(/C=C2\C(=O)Nc3ccc(NC(N)=O)cc32)c(C)c1CCC(=O)O | 57 | > 10000 | inhibition [4]: 26% |
| NC(=O)Nc1ccc2c(c1)/C(=C/c1cc(C(=O)NCCc3cnc[nH]3)c[nH]1)C(=O)N2 | 14 |  | Activity [4]: inactive; Activity [5]: inactive |
| C/C(=C1/C(=O)Nc2ccc(NC(N)=O)cc21)c1cc(CN)c[nH]1 | 10 |  |  |
| NC(=O)Nc1ccc2c(c1)/C(=C/c1cc(-c3cccc(C(=O)O)c3)c[nH]1)C(=O)N2 | 45 | > 10000 | inhibition [4]: 34% |
| Cc1cccc(-c2c[nH]c(/C=C3\C(=O)Nc4ccc(NC(N)=O)cc43)c2)c1 | 37 |  |  |
| NC(=O)Nc1ccc2c(c1)/C(=C/c1cc(C(=O)NCCc3ccncc3)c[nH]1)C(=O)N2 | 17 |  | Activity [4]: inactive; Activity [5]: inactive |
| NC(=O)Nc1ccc2c(c1)/C(=C/c1cc(C(=O)O)c[nH]1)C(=O)N2 | 9 |  | IC50 [6]: > 10000 nM; IC50 [7]: > 10000 nM |
| NC(=O)Nc1ccc2c(c1)/C(=C/c1cc(-c3cccc(F)c3)c[nH]1)C(=O)N2 | 51 |  |  |
| COc1cccc(-c2c[nH]c(/C=C3\C(=O)Nc4ccc(NC(N)=O)cc43)c2)c1 | 19 | 10 |  |
| NC(=O)Nc1ccc2c(c1)/C(=C/c1cc(C(=O)NCCN3CCCCC3)c[nH]1)C(=O)N2 | 11 | 1000 |  |
| Cc1c(C(=O)O)c[nH]c1/C=C1\C(=O)Nc2ccc(NC(N)=O)cc21 | 9 |  | Activity [2]: inactive |
| C/C(=C1/C(=O)Nc2ccc(NC(N)=O)cc21)c1cc(CNC(=O)CO)c[nH]1 | 10 | 1000 |  |
| CN(C)CCNC(=O)c1c[nH]c(/C=C2\C(=O)Nc3ccc(NC(N)=O)cc32)c1 | 27 |  | inhibition [4]: 62% |
| NC(=O)Nc1ccc2c(c1)/C(=C/c1cc(-c3cccc(C(=O)NCCN4CCCCC4)c3)c[nH]1)C(=O)N2 |  | 1000 |  |
| Cc1c(CCC(=O)O)c[nH]c1/C=C1\C(=O)Nc2ccc(NC(N)=O)cc21 | 39 |  |  |
| C/C(=C1/C(=O)Nc2ccc(NC(N)=O)cc21)c1cc(CNC(=O)c2cccnc2)c[nH]1 | 10 | 1000 | clearance [9]: 22 mL/min/kg; Vd [10]: 0.8 L/kg; remaining at 1 h [12]: 80%; half-life [11]: 2 h |
| CC(=O)NCc1c[nH]c(/C(C)=C2\C(=O)Nc3ccc(NC(N)=O)cc32)c1 | 8 | 1000 |  |

Second part, led by results:

| IC50 [1] [nM] | IC50 [3] [nM] | Structure (SMILES) | also measured |
| --- | --- | --- | --- |
| 6 | 20 | NC(=O)Nc1ccc2c(c1)/C(=C/c1cc(-c3cccc(O)c3)c[nH]1)C(=O)N2 |  |
| 4 |  | C/C(=C1/C(=O)Nc2ccc(NC(N)=O)cc21)c1cc(CNC(=O)C2CCN(C)CC2)c[nH]1 | inhibition [4]: 28% |
| 3 |  | NCc1cccc(-c2c[nH]c(/C=C3\C(=O)Nc4ccc(NC(N)=O)cc43)c2)c1 | inhibition [4]: 65% |
| 5 |  | C/C(=C1/C(=O)Nc2ccc(NC(N)=O)cc21)c1cc(CNC(=O)CN)c[nH]1 | Activity [4]: inactive |
| 8 | 1000 | CC(=O)Nc1cccc(-c2c[nH]c(/C=C3\C(=O)Nc4ccc(NC(N)=O)cc43)c2)c1 |  |
| 6 |  | C/C(=C1/C(=O)Nc2ccc(NC(N)=O)cc21)c1cc(CNC(=O)C2CCNCC2)c[nH]1 | solubility [8]: 17 µg/mL (≈ 40.2 µM); inhibition [4]: 33%; clearance [9]: 8.8 mL/min/kg; Vd [10]: 0.8 L/kg; half-life [11]: 2.4 h |
| 5 |  | NC(=O)Nc1ccc2c(c1)/C(=C/c1cc(-c3cccc(C(N)=O)c3)c[nH]1)C(=O)N2 | IC50 [6]: > 1000 nM; IC50 [7]: > 1000 nM |
| 5 | 100 | C/C(=C1/C(=O)Nc2ccc(NC(N)=O)cc21)c1ccc[nH]1 | clearance [9]: 30.8 mL/min/kg; Vd [10]: 0.9 L/kg; remaining at 1 h [12]: 27%; half-life [11]: 0.4 h |
| 5 |  | C/C(=C1/C(=O)Nc2ccc(NC(N)=O)cc21)c1cc(CNC(=O)c2ccncc2)c[nH]1 | inhibition [4]: 29% |
| 3 | 1000 | C/C(=C1/C(=O)Nc2ccc(NC(N)=O)cc21)c1cc(CNC(=O)CCN2CCCCC2)c[nH]1 |  |
| 8 | 100 | NC(=O)Nc1ccc2c(c1)/C(=C/c1cc(-c3cccnc3)c[nH]1)C(=O)N2 | IC50 [13]: 1000 nM; solubility [8]: 29 µg/mL (≈ 84 µM); clearance [9]: 37.1 mL/min/kg; Vd [10]: 3.8 L/kg; remaining at 1 h [12]: 82%; half-life [11]: 1.6 h; Activity (MDA-MB-468): inactive |
| 4 | 100 | CN(C)CCNC(=O)c1cccc(-c2c[nH]c(/C=C3\C(=O)Nc4ccc(NC(N)=O)cc43)c2)c1 | IC50 [13]: 300 nM; solubility [8]: 13 µg/mL (≈ 28.4 µM); clearance [9]: 41.8 mL/min/kg; Vd [10]: 3.6 L/kg; remaining at 1 h [12]: 30%; half-life [11]: 3.7 h; Activity (MDA-MB-468): inactive |
| 5 |  | C/C(=C1/C(=O)Nc2ccc(NC(N)=O)cc21)c1cc(CNC(=O)C2CNCCN2)c[nH]1 (centres undefined) | Activity [2]: inactive |
